The values that follow come from patent publication US6841578B2, “Treatment and prevention of mucositis in cancer patients” (priority 2001, dated 2005).

Experiment [1] relates to radiation-induced mucositis. Put plainly: Hamster model of acute radiation-induced mucositis treated with resveratrol. Particulars: for percentage of days where hamsters had a mucositis score of three or higher: qd, day -1 to day 20, 40 Gy on day 0, control 46.0%. In kind it is in vivo, Male Golden Syrian hamsters.
Experiment [2] concerns NF-κB. The following applies: induction by TNF-α; phosphorylation and nuclear translocation of p65 subunit suppressed; cited from earlier work.

Turning to `Oc1ccc(/C=C/c2cc(O)cc(O)c2)cc1` [resveratrol, trans-3,4′,5-trihydroxystilbene], the “percentage of days where hamsters had a mucositis score of three or higher” value is listed as 21.6% in experiment [1] (1 mM resveratrol, intraperitoneal) and 31.2% in experiment [1] (5 mM resveratrol, intraperitoneal). In experiment [1] (intraperitoneal, 1 mM and 5 mM (FIG. 2)), the “severity of mucositis compared to the control” value is “reduced the severity of mucositis”. The “efficacy of 1 mM compared with 5 mM treatment” value in experiment [1] (intraperitoneal, 1 mM versus 5 mM) is recorded as “more effective”. In addition, the “efficacy of topical application on mucositis” value in experiment [1] (topical, tid, 1 mM and 5 mM) is reported as “not statistically significant, indicated a trend of efficacy”. The “activation of NF-κB” value in experiment [2] is “blocked the activation of NF-κB”.
